# US4254128A, “2-Adamantyl hydrazines and biocidal compositions thereof” (Teva Pharmaceutical Industries Ltd., priority 1977, dated 1981)
# Where a name gives a salt, the structure may show the parent alone.
# Tests used:
# [1] = system: Leptospira canicola Kipod 146; assay: Anti leptospiral activity (minimal inhibition concentration); assay type: cell-based; settings: for MIC: Leptospira interrogans, KIPOD146, 240 h; for anti leptospiral activity: summary in words
# Procedure: The tests were carried out under the following conditions:
# Leptospira: Leptospira canicola Kipod 146
# Inoculum: 1-10^5 cells/ml
# Incubation time: 10 days, 28° C.
# Evaluation: Direct count in dark field microscopy after 4,7 and 10 days.
# 2 Minimal+0.5% albumin (Pentex)
# 3 Korthof rich medium with 8% serum.
# 4 Korthof rich medium with 2% serum.
# [2] = system: 4 mycoplasma (M. gallisepticum, M. capricolum, M. hominis, A. laidlawii); assay: organism not typed; assay type: cell-based; settings: read-out: 50% inhibition of growth
# albino rats = assay: Antiparkinson activity (catalepsy produced by haloperidol); assay type: in vivo, Male Charles River albino rats
# Procedure: Male Charles River albino rats, weighing 200-250 g, were used. Catalepsy was produced by haloperidol, 5 mg/kg i.p. The animals were placed with their front paws on a horizontal bar, about 10 cm above the ground, and animals were considered cataleptic if not changing posture for at least 30 sec. Cataleptic animals were injected i.p. with one of the drugs at a dose of 40-80 mg/kg. Catalepsy was estimated again at the intervals indicated.
# albino mice [3] = assay: Stereotyped behaviour in mice; assay type: in vivo, Male ICR albino mice; design: stereotyped behaviour score / Total Score / Mean Score: scale not given here
# Procedure: Male ICR albino mice weighing 25-30 g were put in cages with a metal grid floor, 4 in each cage. Drugs were injected intraperitoneally and stereotyped behaviour (sniffing, biting, repetitive head movement) was evaluated every 30 min.
# HSV-1 (Herpes Simplex) = assay: Inhibition test on HSV replication; assay type: cell-based; settings: Human alphaherpesvirus 1, BSC-1 cells, 10 PFU/cell
# From the text: BSC-1 (Green monkey kidney)
# **% Inhibition of control infected for some time with same virus PFV with […]
# albino mice [4] = assay: Stereotyped behaviour in mice; assay type: in vivo, Male ICR albino mice; design: scale not given here; settings: 50 mg/kg i.p.
# [5] = Toxic limit in the HSV replication test; settings: monkey, bsc-1 cells
# L. tropica amastigotes = assay: Anti leishmania test, amastigotes in peritoneal exudate cells in vitro; assay type: cell-based; settings: 37° C.
# Procedure: (§1) a. amastigotes in peritoneal exudate cells in Mc Coy's medium in vitro at 37° C.
# +++=clearance of all parasites in 24 hours
# ++=clearance of all parasites in 48 hours
# +=clearance of all parasites in 72 hours
# ±=Partial clearance of parasites in 72 hours or more
# -=No activity against parasites.
# Leishmania = assay: Anti leishmania tests, summary; assay type: cell-based, L. tropica; settings: summary in words
# Procedure: as §1
# b. promastigotes in Mc Coy's medium in vitro at 27° C.
# Pythium = assay: Antifungal activity in plants, growth on solid agar; assay type: cell-based; settings: read-out: inhibiting concentration
# Procedure: (§2) Antiplant fungal activity was tested as follows:
# (§3) Inhibition of growth on solid agar mixed with various concentrations of the tested compounds.
# S. rolfsii = assay: as above; assay type: cell-based; settings: Agroathelia rolfsii, read-out: inhibiting concentration
# Procedure: as §2, §3
# Sclerotinia = assay: as above; assay type: cell-based; settings: read-out: inhibiting concentration
# Procedure: as §2, §3
smiles,measurement,setting,value
"C1CCN(NC2C3CC4CC(C3)CC2C4)CC1 (stereo not shown) [Example 10, 1-(2'-Adamantylamino)piperidine hydrochloride]",MIC,[1]; Korthof + 8% serum,100 µg/mL
same,MIC,[1]; minimal medium,12.5 µg/mL
same,anti leptospiral activity,[1],active
same,IC50,[2],5 to 30 µg/mL
same,Mean maximal effect,"albino rats; 80 mg/kg i.p., mean of 5 rats",1/4
same,anticataleptic effect,"albino rats; 80 mg/kg i.p., rat 1",0/4
same,anticataleptic effect,"albino rats; 80 mg/kg i.p., rat 2",1/4
same,anticataleptic effect,"albino rats; 80 mg/kg i.p., rat 3",0/4
same,anticataleptic effect,"albino rats; 80 mg/kg i.p., rat 4",1/4
same,anticataleptic effect,"albino rats; 80 mg/kg i.p., rat 5",3/4
same,antiparkinson activity,albino rats; summary in words,active
same,stereotyped behaviour score,"albino mice [3]; 50 mg/kg i.p., 0 min, mouse 1",0
same,stereotyped behaviour score,"albino mice [3]; 50 mg/kg i.p., 0 min, mouse 2",0
same,stereotyped behaviour score,"albino mice [3]; 50 mg/kg i.p., 0 min, mouse 3",0
same,stereotyped behaviour score,"albino mice [3]; 50 mg/kg i.p., 0 min, mouse 4",0
same,stereotyped behaviour score,"albino mice [3]; 50 mg/kg i.p., 30 min, mouse 1",1
same,stereotyped behaviour score,"albino mice [3]; 50 mg/kg i.p., 30 min, mouse 2",1
same,stereotyped behaviour score,"albino mice [3]; 50 mg/kg i.p., 30 min, mouse 3",1
same,stereotyped behaviour score,"albino mice [3]; 50 mg/kg i.p., 30 min, mouse 4",1
same,stereotyped behaviour score,"albino mice [3]; 50 mg/kg i.p., 45 min, mouse 3",1
same,stereotyped behaviour score,"albino mice [3]; 50 mg/kg i.p., 45 min, mouse 4",0
same,stereotyped behaviour score,"albino mice [3]; 50 mg/kg i.p., 60 min, mouse 1",1
same,stereotyped behaviour score,"albino mice [3]; 50 mg/kg i.p., 60 min, mouse 2",1
same,stereotyped behaviour score,"albino mice [3]; 50 mg/kg i.p., 60 min, mouse 3",1
same,stereotyped behaviour score,"albino mice [3]; 50 mg/kg i.p., 60 min, mouse 4",1
same,stereotyped behaviour score,"albino mice [3]; 50 mg/kg i.p., 90 min, mouse 1",1
same,stereotyped behaviour score,"albino mice [3]; 50 mg/kg i.p., 90 min, mouse 2",1
same,stereotyped behaviour score,"albino mice [3]; 50 mg/kg i.p., 90 min, mouse 3",1
same,stereotyped behaviour score,"albino mice [3]; 50 mg/kg i.p., 90 min, mouse 4",1
same,stereotyped behaviour score,"albino mice [3]; 50 mg/kg i.p., 120 min, mouse 1",0
same,stereotyped behaviour score,"albino mice [3]; 50 mg/kg i.p., 120 min, mouse 2",0
same,stereotyped behaviour score,"albino mice [3]; 50 mg/kg i.p., 120 min, mouse 3",0
same,stereotyped behaviour score,"albino mice [3]; 50 mg/kg i.p., 120 min, mouse 4",0
same,stereotyped behaviour score,"albino mice [3]; 50 mg/kg i.p., 135 min, mouse 1",0
same,stereotyped behaviour score,"albino mice [3]; 50 mg/kg i.p., 135 min, mouse 2",0
same,stereotyped behaviour score,"albino mice [3]; 50 mg/kg i.p., 150 min, mouse 1",0
same,stereotyped behaviour score,"albino mice [3]; 50 mg/kg i.p., 150 min, mouse 2",0
same,stereotyped behaviour score,"albino mice [3]; 50 mg/kg i.p., 150 min, mouse 3",0
same,stereotyped behaviour score,"albino mice [3]; 50 mg/kg i.p., 150 min, mouse 4",0
same,stereotyped behaviour score,"albino mice [3]; 50 mg/kg i.p., 180 min, mouse 1",1
same,stereotyped behaviour score,"albino mice [3]; 50 mg/kg i.p., 180 min, mouse 2",1
same,stereotyped behaviour score,"albino mice [3]; 50 mg/kg i.p., 180 min, mouse 3",0
same,stereotyped behaviour score,"albino mice [3]; 50 mg/kg i.p., 180 min, mouse 4",0
same,stereotyped behaviour score,"albino mice [3]; 50 mg/kg i.p., 210 min, mouse 1",1
same,stereotyped behaviour score,"albino mice [3]; 50 mg/kg i.p., 210 min, mouse 2",0
same,stereotyped behaviour score,"albino mice [3]; 50 mg/kg i.p., 210 min, mouse 3",0
same,stereotyped behaviour score,"albino mice [3]; 50 mg/kg i.p., 210 min, mouse 4",0
same,stereotyped behaviour score,"albino mice [3]; 50 mg/kg i.p., 240 min, mouse 1",0
same,stereotyped behaviour score,"albino mice [3]; 50 mg/kg i.p., 240 min, mouse 2",0
same,stereotyped behaviour score,"albino mice [3]; 50 mg/kg i.p., 240 min, mouse 3",0
same,stereotyped behaviour score,"albino mice [3]; 50 mg/kg i.p., 240 min, mouse 4",0
same,Mean Score,"albino mice [3]; 50 mg/kg i.p., mean of 4 mice",4.75
same,Total Score,"albino mice [3]; 50 mg/kg i.p., mouse 1",6
same,Total Score,"albino mice [3]; 50 mg/kg i.p., mouse 2",6
same,Total Score,"albino mice [3]; 50 mg/kg i.p., mouse 3",4
same,Total Score,"albino mice [3]; 50 mg/kg i.p., mouse 4",3
same,stereotyped behaviour activity,albino mice [3]; summary in words,active
same,inhibition at 10 µg/mL,HSV-1 (Herpes Simplex); 10 μg/ml,50%
same,inhibition at 25 µg/mL,HSV-1 (Herpes Simplex); 25 μg/ml,40%
same,inhibition at 50 µg/mL,"HSV-1 (Herpes Simplex); 50 μg/ml, read-out: % Inhibition",96%
same,stereotyped behaviour score,"albino mice [4]; 45 min, mouse 1",1
same,stereotyped behaviour score,"albino mice [4]; 45 min, mouse 2",2
same,stereotyped behaviour score,"albino mice [4]; 135 min, mouse 3",0
same,stereotyped behaviour score,"albino mice [4]; 135 min, mouse 4",0
same,MNTC,[5],50 µg/mL
"NNC1C2CC3CC(C2)CC1C3 (stereo not shown) [Example 18, 2-Adamantylhydrazine hydrochloride]",MIC,[1]; Korthof + 2% serum,12.5 µg/mL
same,MIC,[1]; Korthof + 8% serum,125 µg/mL
same,MIC,[1]; minimal + Pentex (0.5% albumin),6.25 µg/mL
same,MIC,[1]; minimal medium,3.12 µg/mL
same,anti leptospiral activity,[1],active
same,Leishmania amastigote activity score,L. tropica amastigotes; 10 μg,++ (clearance of all parasites in 48 hours)
same,Leishmania amastigote activity score,L. tropica amastigotes; 100 μg,+++ (clearance of all parasites in 24 hours)
same,activity against Leishmania,Leishmania,active
same,MIC,Pythium,50 µg/mL
same,MIC,S. rolfsii,50 µg/mL
same,MIC,Sclerotinia,50 µg/mL
"CN(NC1C2CC3CC(C2)CC1C3)c1cccc(C(F)(F)F)c1 (stereo not shown) [Example 29, 1-(2'-Adamantyl)-2-methyl-2-(m-trifluoromethylphenyl)hydrazine hydrochloride hemihydrate]",MIC,[1]; Korthof + 8% serum,6.25 µg/mL
same,MIC,[1]; minimal medium,6.25 µg/mL
same,anti leptospiral activity,[1],active
same,MIC,Pythium,50 µg/mL
same,MIC,S. rolfsii,50 µg/mL
same,MIC,Sclerotinia,50 µg/mL
